From patent US8642793B1, “Biosurfactant produced by Aureobasidium pullulans” (Gyeongbuk Institute for Marine Bio-industry, priority 2012, dated 2014)
Where two headings read alike, the source gives them in different places. Values belong to the compound of their own block, whether it stands above or below them.

Experiments:
[1] = Measurement of surface tension with a surface tension meter (Sigma 700, KSV Instruments); assay type: physicochemical
Method: Compound L9 isolated in Example 1 was dropped on a hydrophobic film, and surface tension variation was observed using a surface tension meter (Densitometer, Sigma 700 Densitometer (KSV Instruments Ltd., Finland)). Water was a control, and a culture medium and the size of compound L9 were compared. The numerical value of the surface tension was shown as (dyne/cm (or mN/m)). When a surfactant that has a hydrophobic moiety and a hydrophilic moiety is added to water, surface tension decreases. […] As the intermolecular interaction increases, the surface tension increases. Surface tensions of Compound L9 and known materials produced by bacteria (Table 2) and yeasts (Table 3) were measured, and the results are shown in Tables 2 and 3 below.

[2] = reference liquids of Table 1, no amount given; cited from earlier work

Compound: CCCCC[C@@H](O)C[C@@H](O)CC(=O)O[C@H](CCCCC)C[C@@H](O)CC(=O)O[C@H](CCCCC)C[C@@H](O)CC(=O)OCC(O)CO (stereo partly shown) [Compound L9]
Surface tension ([1]; amount of material 1.5 mg/L): 31.5 dyne/cm
Surface tension ([1]; at 1.5 mg/litter): 31.5 mN/m
degree of activity (surface tension) ([1]; summary statement, no amount given): 31 dyne/cm

Compound: OCC(O)CO [Glycerin]
Surface tension [2]: 63 dyne/cm

Compound: Iturin
Surface tension ([1]; amount of material 20 mg/L): 43.0 dyne/cm

Compound: Sophorolipid
Surface tension ([1]; amount of material 40 mg/L): 35.0 dyne/cm

Compound: Trehalos lipid
Surface tension ([1]; amount of material 25 mg/L): 24.1 dyne/cm

Results, then the compound that gave them:

Surface tension ([1]; amount of material 300 mg/L): 26.0 dyne/cm
Compound: Flavolipid

Surface tension ([1]; amount of material 30 mg/L): 31.4 dyne/cm
Compound: Rhamnolipid

Surface tension ([1]; amount of material 0.7 mg/L): 43.0 dyne/cm
Compound: Trehalose lipid
